Results on 2 compounds are retold here after US8969572B2, “Process for preparing tetrazole-substituted anthranilamide derivatives and novel crystal polymorphs of these derivatives” (Bayer Cropscience AG, priority 2010, dated 2015).

As usually defined, the pKa is the negative logarithm of the acid dissociation constant.

For data set [1] the following is noted: cited from earlier work.
A short description of data set [2]: thermodynamic stability of the crystal polymorph. In kind it is physicochemical. The text has this: The compound of the formula (I-1) is known from WO2010/069502. To date, only one crystal form of the compound 1-(3-chloropyridin-2-yl)-N-[4-cyano-2-methyl-6-(methylcarbamoyl)phenyl]-3-{[5-(trifluoromethyl)-2H-tetrazol-2-yl]methyl}-1H-pyrazole-5-carboxamide of the formula (I-1) was known, which is referred to hereinafter as polymorph A. Polymorph A has a characteristic x-ray powder diffractogram, Raman spectrum and IR spectrum (Tab. 1-2, FIGS. 2, 3, 5).

`FC(F)(F)c1nnn[nH]1` [5-Trifluoromethyltetrazole]: the pKa in data set [1] was 1.14.

`CNC(=O)c1cc(C#N)cc(C)c1NC(=O)c1cc(Cn2nnc(C(F)(F)F)n2)nn1-c1ncccc1Cl` [Polymorph A, 1-(3-chloropyridin-2-yl)-N-[4-cyano-2-methyl-6-(methylcarbamoyl)phenyl]-3-{[5-(trifluoromethyl)-2H-tetrazol-2-yl]methyl}-1H-pyrazole-5-carboxamide]: the “thermodynamic stability of crystal polymorph” value in data set [2] was “thermodynamically metastable”.
